Here are results for 23 compounds from US7943551B2, “3-cyclopropyl-4-(3-thiobenzoyl) pyrazoles and their use as herbicides” (Bayer Cropscience AG, priority 2007, dated 2011).

Type in all cases: in vivo
In one experiment the test system is Stellaria media. In words: Post-emergence herbicidal action. The settings on record: 80 g of a.i./ha, visual scoring 3-4 weeks after treatment; for pest or weed control at 80 g/ha: Stellaria media, read-out: Herbicidal activity in % against STEME. As for the experimental part:
(§1) Seeds of mono- and dicotyledonous harmful plants are placed in sandy loam in cardboard pots, covered with soil and grown in the greenhouse under good growth conditions. Two to three weeks after sowing, the test plants are treated at the three-leaf stage. The compounds according to the invention, which are formulated as wettable powders or as emulsion concentrates, are sprayed at an application rate of 600 to 800 l of water/ha (converted) in a dosage of 80 grams per hectare onto the surface of the green plant parts. The visual scoring of the damage to the harmful plants is carried out 3-4 weeks after the treatment. Here, the compounds of Nos. 1-39, 1-40, 1-1382 and 1-2091 show an activity of at least 90% against Echinochloa crus galli. The compounds of Nos. 1-3, 1-44 and 1-2091 shown an activity of at least 90% against Abutilon theophrasti. The compounds of Nos. 1-39, 1-40 and 1-1382 show an activity of at least 90% against Veronica persica. The compounds of Nos. 1-3, 1-38, 1-39, 1-1406 and 1-1407 show an activity of at least 90% against Stellaria media.
(§2) The comparative tests of Tables 1 to 24 below show the superiority of the compounds according to the invention over the compounds known from the prior art.
(§3) • ABUTH Abutilon theophrasti ALOMY Alopecurus myosuroides • AMARE Amaranthus retroflexus AVEFA Avena fatua • CHEAL Chenopodium album ECHCG Echinochloa crus galli • GALAP Galium aparine LOLMU Lolium multiflorum • MATIN Matricaria inodora PHBPU Pharbitis purpureum • POLCO Fallopia convolvulus STEME Stellaria media • VERPE Veronica persica VIOTR Viola tricolor • XANST Xanthium strumarium Crop Plants • GLXMA Glycine max (soybeans) TRZAS Triticum aestivum (wheat) • ZEAMX Zea mays (corn)

Experiment [1] deals with Matricaria inodora. In words: Post-emergence herbicidal action. Particulars: Tripleurospermum inodorum, 80 g of a.i./ha, read-out: Herbicidal activity in % against MATIN. As for the experimental part: as §1, §2, §3
Another experiment has as its system Pharbitis purpureum. In words: Post-emergence herbicidal action. Particulars: 80 g of a.i./ha. As for the experimental part: as §1, §2, §3
Another experiment has as its system Echinochloa crus galli. As to the kind of experiment: Post-emergence herbicidal action. The settings on record: read-out: Herbicidal activity in % against ECHCG; for pest or weed control at 80 g/ha: 80 g of a.i./ha, visual scoring 3-4 weeks after treatment; for pest or weed control at 20 g/ha: 20 g of a.i./ha. Here is the method:
as §1, §2, §3

The test system of another experiment is Viola tricolor. In words: Post-emergence herbicidal action. The settings on record: 80 g of a.i./ha, read-out: Herbicidal activity in % against VIOTR. Here is the method: as §1, §2, §3
A further experiment has as its system Xanthium strumarium. In words: Post-emergence herbicidal action. Particulars: read-out: Herbicidal activity in % against XANST; for pest or weed control at 80 g/ha: 80 g of a.i./ha; for pest or weed control at 20 g/ha: 20 g of a.i./ha. As for the experimental part: as §1, §2, §3
Experiment [2] concerns Abutilon theophrasti. As to the kind of experiment: Pre-emergence herbicidal action. Particulars: 320 g of a.i./ha, visual scoring 3-4 weeks after treatment.
Excerpt: (§4) Seeds or rhizome pieces of mono- and dicotyledonous harmful plants are placed in sandy loam in pots of a diameter of 9 to 13 cm and covered with soil. The herbicides, formulated as emulsifiable concentrates or dusts, are applied to the surface of the covering soil in the form of aqueous dispersions or suspensions or emulsions at an application rate of 300 to 800 l of water/ha (converted), at a dosage of 320 grams per hectare. For further cultivation of the plants, the pots are then kept in a greenhouse under optimum conditions. The visual scoring of the damage to the harmful plants is carried out 3-4 weeks after the treatment. Here, the compounds of Nos. 1-3, 1-15, 1-44 and 1-1407 show an activity of at least 90% against Echinochloa crus galli. The compounds of Nos. 1-15, 1-45, 1-1407 and 1-1419 show an activity of at least 90% against Abutilon theophrasti. The compounds of Nos. 1-3, 1-45, 1-1406 and 1-1418 show an activity of at least 90% against Amaranthus retroflexus. The compounds of Nos. 1-44, 1-1406, 1-1407 and 1-1419 show an activity of at least 90% against Stellaria media.
as §2, §3

Experiment [3] concerns Matricaria inodora. In words: Pre-emergence herbicidal action. The settings on record: Tripleurospermum inodorum, 320 g of a.i./ha, read-out: Herbicidal activity in % against MATIN.
Excerpt: as §4, §2, §3

For experiment [4], the system named is Abutilon theophrasti. As to the kind of experiment: Post-emergence herbicidal action. The settings on record: for pest or weed control at 20 g/ha / pest or weed control at 80 g/ha: Abutilon theophrasti, read-out: Herbicidal activity in % against ABUTH; for pest or weed control at 20 g/ha: 20 g of a.i./ha. Here is the method: as §1, with “The compounds according to the invention, which are formulated as wettable powders or as emulsion concentrates, are sprayed at an application rate of 600 to 800 l of water/ha (converted) in a dosage of 80 grams per hectare onto the surface of the green plant parts.” left out
as §2, §3

A further experiment has as its system Veronica persica. In words: Post-emergence herbicidal action. The settings on record: 80 g of a.i./ha, visual scoring 3-4 weeks after treatment, read-out: Herbicidal activity in % against VERPE. Here is the method:
as §1, §2, §3

Setting [5] is: 80 g of a.i./ha, visual scoring 3-4 weeks after treatment.

With `COCCSc1c(Cl)ccc(C(=O)c2c(C3CC3)nn(C)c2O)c1C` [drawing 41], the results for the pest or weed control at 80 g/ha with Stellaria media, in the experiment on Matricaria inodora [1] and in the experiment on Echinochloa crus galli were 100%, 80% and 90%, respectively. Also, the “Herbicidal activity in % against PHBPU” value in the experiment with Pharbitis purpureum is 80%.

For the compound `Cc1c(C(=O)c2c(C3CC3)nn(C)c2O)ccc(S(C)(=O)=O)c1SCC1CC1` [drawing 29], the results for the pest or weed control at 80 g/ha with Viola tricolor, with Xanthium strumarium and with Echinochloa crus galli were 90%, 90% and 100%, respectively.

`CCSc1c(C(F)(F)F)ccc(C(=O)c2c(C3CC3)nn(C)c2O)c1C`: the “Herbicidal activity in % against ABUTH” value in the experiment on Abutilon theophrasti [2] amounted to 90%. Further, the pest or weed control at 320 g/ha in the experiment with Matricaria inodora [3] is 0%.

For the compound `CSc1c(C(F)(F)F)ccc(C(=O)c2c(C3CC3)nn(C)c2O)c1C` [drawing 46, reference compound], the results for the pest or weed control at 20 g/ha with Abutilon theophrasti [4] and with Echinochloa crus galli were 70% and 60%, respectively.

On to `CSc1c(S(C)(=O)=O)ccc(C(=O)c2c(C3CC3)nn(C)c2O)c1Cl` [drawing 52, reference compound], for which the pest or weed control at 80 g/ha with Stellaria media and with Veronica persica was 80% in each case. In the experiment with Pharbitis purpureum, the “Herbicidal activity in % against PHBPU” value is 50%.

Regarding `CSc1c(S(C)(=O)=O)ccc(C(=O)c2c(C3CC3)nn(C)c2O)c1Cl` [drawing 50, reference compound], the pest or weed control at 80 g/ha in the experiment on Abutilon theophrasti [4] (setting [5]) amounted to 80%; with Viola tricolor it was 60%; in the experiment on Matricaria inodora [1] it was 30%.

Turning to `COCCSc1c(C(F)(F)F)ccc(C(=O)c2c(C3CC3)nn(C)c2O)c1C` [No. 1-2091, 3-cyclopropyl-5-hydroxy-4-(3-(2-methoxyethyl)thio-2-methyl-4-trifluoromethylbenzoyl)-1-methylpyrazole], the pest or weed control at 80 g/ha in the experiment with Abutilon theophrasti [4] (setting [5]) and in the experiment with Echinochloa crus galli was not below 90% each time.

For the compound `Cc1c(C(=O)c2c(C3CC3)nn(C)c2O)ccc(Cl)c1SCC1CC1` [drawing 39], the “Herbicidal activity in % against STEME” value in the experiment on Stellaria media is recorded as 100%. The values for the pest or weed control at 80 g/ha in the experiment with Matricaria inodora [1] and in the experiment with Echinochloa crus galli were 70% and 90%, respectively. Also, the “Herbicidal activity in % against PHBPU” value in the experiment with Pharbitis purpureum is 70%.

As to `COCCSc1c(C(F)(F)F)ccc(C(=O)c2c(C3CC3)nn(C)c2O)c1C` [drawing 19], the “Herbicidal activity in % against ABUTH” value in the experiment on Abutilon theophrasti [2] was 100%. For the same compound, the pest or weed control at 320 g/ha in the experiment with Matricaria inodora [3] came out at 60%.

Consider `COCCSc1c(S(C)(=O)=O)ccc(C(=O)c2c(C3CC3)nn(C)c2O)c1Cl` [drawing 51], for which, in the experiment with Stellaria media, the “Herbicidal activity in % against STEME” value stood at 90%. For the same compound, the pest or weed control at 80 g/ha in the experiment with Veronica persica was determined as 100%. For the same compound, the “Herbicidal activity in % against PHBPU” value in the experiment on Pharbitis purpureum was 60%.

In the case of `COCCSc1c(S(C)(=O)=O)ccc(C(=O)c2c(C3CC3)nn(C)c2O)c1Cl` [No. 1-3, 4-(2-chloro-3-(2-methoxyethyl)thio-4-methylsulfonylbenzoyl)-3-cyclopropyl-5-hydroxy-1-methylpyrazole], the pest or weed control at 80 g/ha in the experiment on Abutilon theophrasti [4] (setting [5]) and in the experiment with Stellaria media was not below 90% throughout.

For `CCSc1c(S(C)(=O)=O)ccc(C(=O)c2c(C3CC3)nn(C)c2O)c1Cl` [drawing 48, reference compound], the figures for the pest or weed control at 80 g/ha with Abutilon theophrasti [4] (setting [5]), in the experiment with Viola tricolor and with Matricaria inodora [1] were 80%, 60% and 0%, respectively.

As for `CSc1c(C(F)(F)F)ccc(C(=O)c2c(C3CC3)nn(C)c2O)c1C` [drawing 20], the “Herbicidal activity in % against ABUTH” value in the experiment on Abutilon theophrasti [2] is given as 50%. In the experiment with Matricaria inodora [3], the pest or weed control at 320 g/ha is 0%.

In the case of `COCCSc1c(S(C)(=O)=O)ccc(C(=O)c2c(C3CC3)nn(C)c2O)c1Cl` [drawing 47], in the experiment with Abutilon theophrasti [4] (setting [5]), the “Herbicidal activity in % against ABUTH” value is 90%. The pest or weed control at 80 g/ha in the experiment with Viola tricolor and in the experiment on Matricaria inodora [1] was 70% each time.

As for `Cn1nc(C2CC2)c(C(=O)c2ccc(Cl)c(SCC3CC3)c2Cl)c1O`, the pest or weed control at 20 g/ha in the experiment with Abutilon theophrasti [4] worked out at 60%; with Xanthium strumarium, 70%.

Take `CSc1c(S(C)(=O)=O)ccc(C(=O)c2c(C3CC3)nn(C)c2O)c1C` [drawing 30, reference compound]: the values for the pest or weed control at 80 g/ha in the experiment on Viola tricolor, with Xanthium strumarium and with Echinochloa crus galli were 70%, 60% and 80%, respectively.

As for `Cc1c(C(=O)c2c(C3CC3)nn(C)c2O)ccc(S(C)(=O)=O)c1SCC1CC1` [No. 1-38, 3-cyclopropyl-4-(3-cyclopropylmethylthio-2-methyl-4-methylsulfonylbenzoyl)-5-hydroxy-1-methylpyrazole], the pest or weed control at 80 g/ha in the experiment on Stellaria media was not below 90%.

As to `COCCSc1c(C(F)(F)F)ccc(C(=O)c2c(C3CC3)nn(C)c2O)c1C` [drawing 45], the pest or weed control at 20 g/ha with Abutilon theophrasti [4] and in the experiment on Echinochloa crus galli was 80% each time.

In the case of `CCSc1c(S(C)(=O)=O)ccc(C(=O)c2c(C3CC3)nn(C)c2O)c1C` [reference compound], the pest or weed control at 80 g/ha in the experiment on Viola tricolor turned out to be 70%; in the experiment on Xanthium strumarium it was 80%; with Echinochloa crus galli, 80%.

Regarding `Cc1c(C(=O)c2c(C3CC3)nn(C)c2O)ccc(Cl)c1SCC1CC1` [No. 1-1406, 4-(4-chloro-3′-cyclopropylmethylthio-2-methylbenzoyl)-3-cyclopropyl-5-hydroxy-1-methylpyrazole], in the experiment with Stellaria media, the pest or weed control at 80 g/ha is not below 90%.

`CCSc1c(Cl)ccc(C(=O)c2c(C3CC3)nn(C)c2O)c1Cl` [reference compound]: the pest or weed control at 20 g/ha with Abutilon theophrasti [4] came out at 40%; in the experiment with Xanthium strumarium, 50%.

Regarding `CCSc1c(Cl)ccc(C(=O)c2c(C3CC3)nn(C)c2O)c1C` [drawing 40, reference compound], the pest or weed control at 80 g/ha in the experiment on Stellaria media stood at 90%; with Matricaria inodora [1], 40%; in the experiment with Echinochloa crus galli, 80%. The “Herbicidal activity in % against PHBPU” value with Pharbitis purpureum came out at 40%.

Turning to `COCCSc1c(S(C)(=O)=O)ccc(C(=O)c2c(C3CC3)nn(C)c2O)c1C`, the pest or weed control at 80 g/ha in the experiment on Viola tricolor, in the experiment with Xanthium strumarium and in the experiment on Echinochloa crus galli was 90% throughout.
